Laboratory results from the supplement of paper PMC10307832.

Legend:
Assay in all cases: relative viability (nuclei count vs DMSO), 5 days (fraction); higher = more cells survive
AZ628 + Tozasertib = compound: CC1=C(C=C(C=C1)NC(=O)C2=CC(=CC=C2)C(C)(C)C#N)NC3=CC4=C(C=C3)N=CN(C4=O)C [AZ628] + Cc1cc(Nc2cc(N3CCN(C)CC3)nc(Sc3ccc(NC(=O)C4CC4)cc3)n2)n[nH]1 [Tozasertib] (partner 0.1 µM)
In short: (§1)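 Lung cancer cell lines were seeded in 1536-well plates and dosed by pin tool the next day, with either a single drug or a fixed anchor-drug dose combined with five library-drug doses (not always all listed) spaced in √10 steps. Five days later, one step fixed the cells and stained their nuclei (final 0.05% Triton X-100, 1% formaldehyde, 1 ug/ml Hoechst), and nuclei were counted on 4× images. Relative viability is the nuclei count in treated wells divided by the count in vehicle wells, and each value is the median of duplicate plates.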

AZ628 + Bortezomib = compound: CC1=C(C=C(C=C1)NC(=O)C2=CC(=CC=C2)C(C)(C)C#N)NC3=CC4=C(C=C3)N=CN(C4=O)C [AZ628] + CC(C)C[C@H](NC(=O)[C@H](Cc1ccccc1)NC(=O)c1cnccn1)B(O)O [Bortezomib] (partner 0.002 µM)
In short: as §1

[1] = compound: C[As](C)SC[C@H](NC(=O)CC[C@H](N)C(=O)O)C(=O)NCC(=O)O [Darinaparsin] + Nc1nc2[nH]cc(CCc3ccc(C(=O)N[C@@H](CCC(=O)O)C(=O)O)cc3)c2c(=O)[nH]1 [Pemetrexed] (partner 0.2 µM)
In short: as §1

[2] = compound: C[As](C)SC[C@H](NC(=O)CC[C@H](N)C(=O)O)C(=O)NCC(=O)O [Darinaparsin] + CC1(C)CCC(c2ccc(Cl)cc2)=C(CN2CCN(c3ccc(C(=O)NS(=O)(=O)c4ccc(N[C@H](CCN5CCOCC5)CSc5ccccc5)c(S(=O)(=O)C(F)(F)F)c4)cc3)CC2)C1 [Navitoclax] (partner 0.5 µM)
In short: as §1

Row | Cell Line | relative viability (AZ628 + Tozasertib; first compound 0.08 µM) | relative viability (AZ628 + Tozasertib; first compound 0.253 µM) | relative viability (AZ628 + Tozasertib; first compound 0.8 µM) | relative viability (AZ628 + Tozasertib; first compound 2.53 µM) | relative viability (AZ628 + Tozasertib; first compound 8 µM) | relative viability (AZ628 + Bortezomib; first compound 0.08 µM) | relative viability (AZ628 + Bortezomib; first compound 0.253 µM) | relative viability (AZ628 + Bortezomib; first compound 0.8 µM) | relative viability (AZ628 + Bortezomib; first compound 2.53 µM) | relative viability (AZ628 + Bortezomib; first compound 8 µM) | relative viability ([1]; first compound 0.08 µM) | relative viability ([1]; first compound 0.8 µM) | relative viability ([1]; first compound 2.53 µM) | relative viability ([1]; first compound 8 µM) | relative viability ([2]; first compound 0.08 µM) | relative viability ([2]; first compound 0.8 µM) | relative viability ([2]; first compound 2.53 µM) | relative viability ([2]; first compound 8 µM)
1 | HCC-44 | 1.16 | 0.956 | 0.941 | 0.332 | 0.532 | 0.904 | 0.915 | 1.09 | 1.01 | 0.758 | 0.7 | 0.607 | 0.669 | 0.721 | 1.18 | 1 | 0.864 | 1.19
2 | NCI-H647 | 0.293 | 0.262 | 0.296 | 0.269 | 0.146 | 0.984 | 0.905 | 0.903 | 0.947 | 1.28 | 0.189 | 0.156 | 0.166 | 0.146 | 1.42 | 1.09 | 0.981 | 1.04
3 | NCI-H1734 | 0.258 | 0.267 | 0.196 | 0.243 | 0.197 | 0.969 | 0.809 | 0.903 | 0.756 | 0.562 | 0.421 | 0.389 | 0.442 | 0.466 | 1.07 | 0.947 | 0.806 | 1.11
4 | NCI-H1993 | 0.613 | 0.617 | 0.591 | 0.602 | 0.555 | 1.1 | 1.03 | 0.932 | 0.711 | 0.815 | 0.617 | 0.66 | 0.599 | 0.64 | 0.801 | 0.836 | 1.04 | 1.16
5 | NCI-H23 | 0.286 | 0.263 | 0.323 | 0.26 | 0.213 | 1.12 | 1.01 | 0.805 | 0.887 | 0.551 | 0.933 | 0.616 | 0.643 | 0.74 | 1.09 | 0.917 | 0.963 | 1.02
6 | NCI-H1355 | 0.548 | 0.512 | 0.628 | 0.495 | 0.269 | 1.21 | 1.03 | 1.12 | 1.12 | 1.1 | 1.16 | 1.08 | 0.906 | 1.07 | 1.08 | 0.94 | 0.836 | 1.05
7 | NCI-H2405 | 0.5 | 0.637 | 0.539 | 0.529 | 0.457 | 0.756 | 0.864 | 0.548 | 0.68 | 1.09 | 1.24 | 0.872 | 1.07 | 1.14 | 0.801 | 0.829 | 0.781 | 0.88
8 | NCI-H2023 | 0.308 | 0.284 | 0.235 | 0.212 | 0.137 | 1.19 | 1.07 | 1.06 | 0.981 | 0.821 | 0.335 | 0.231 | 0.202 | 0.227 | 1.08 | 1.07 | 0.951 | 1.2
9 | PC-3 [JPC-3] | 0.909 | 0.909 | 0.926 | 0.91 | 0.798 | 0.778 | 0.924 | 0.9 | 0.801 | 0.857 | 1.43 | 1.02 | 1.04 | 1.04 | 0.832 | 0.748 | 0.767 | 0.825
10 | LXF-289 | 0.199 | 0.213 | 0.195 | 0.174 | 0.155 | 0.994 | 1.03 | 0.915 | 0.917 | 0.648 | 0.888 | 0.962 | 0.894 | 0.965 | 1 | 0.975 | 0.809 | 1.05
11 | NCI-H1437 | 0.402 | 0.408 | 0.428 | 0.418 | 0.375 | 0.488 | 0.544 | 0.425 | 0.486 | 0.556 | 0.34 | 0.371 | 0.301 | 0.329 | 1.54 | 1.1 | 0.962 | 1.33
12 | NCI-H838 | 0.27 | 0.302 | 0.281 | 0.288 | 0.212 | 0.949 | 0.772 | 0.733 | 0.838 | 0.942 | 0.272 | 0.223 | 0.245 | 0.247 | 1.51 | 1.15 | 1.15 | 1.5
13 | NCI-H520 | 0.407 | 0.453 | 0.365 | 0.422 | 0.412 | 0.732 | 0.476 | 0.502 | 0.591 | 0.571 | 0.639 | 0.613 | 0.68 | 0.76 | 1.41 | 0.976 | 1.17 | 1.11
14 | H3255 | 0.863 | 0.613 | 0.915 | 0.62 | 0.487 | 0.837 | 0.621 | 0.811 | 0.81 | 0.66 | 0.576 | 0.587 | 0.522 | 0.54 | 0.542 | 0.513 | 0.458 | 0.674
15 | PC-14 | 0.502 | 0.526 | 0.612 | 0.564 | 0.44 | 0.815 | 0.746 | 0.942 | 1.08 | 0.604 | 0.134 | 0.131 | 0.128 | 0.143 | 1.19 | 0.981 | 1.04 | 1.17
